Results published in patent US11231416B2, “Virus-like particle (VLP) based small molecule-protein interaction trap” (VIB VZW, priority 2015, dated 2022).

Key:
Assay in all cases: Viral trapping in VLPs, MS analysis
Assay type in all cases: binding
ENPP4 = target: T1, ENPP4 (Homo sapiens, UniProt Q9Y6X5); details: all proteins (incl. low confidence identifications)
T1 construct: endogenous in cells; host or cells: HEK293T
Experimental: (§1) For mass spectrometry, 10^7 HEK293T cells were seeded in five flasks (75 cm^2) and transfected the next day with a total of 15 μg DNA per flask using polyethylene imine reagent. The following DNA quantities were used per flask: 7.5 μg of GAG-eDHFR, 5.4 μg of mock vector and 2.1 μg of a 50/50 mix of pMD2.G and pcDNA3-FLAG-VSV-G. The small molecule fusions were added immediately after transfection to the producing cells at a concentration of 1 μM. The same dilution of dimethyl sulfoxide (DMSO) was added in control experiments to control the effect of this chemical on the cells. The cellular supernatant was harvested after 32 hours and was centrifuged for 3 minutes at 450×g to remove cellular debris. The cleared supernatant was then filtered using 0.45 μm filters (Millipore). A total of 100 μl MyOne™ Streptavidin T1 beads (Life Technologies) pre-loaded with 10 μg ANTI-FLAG® BioM2-Biotin antibody (Sigma-Aldrich®) was used to bind the tagged particles. Particles were allowed to bind for 2 hours by end-over-end rotation. The total supernatant was processed in three consecutive binding steps. Bead-particle complexes were washed once with washing buffer (TWB: 20 mM Tris-HCl pH 7.5, 150 mM NaCl) and were then eluted with FLAG peptide (200 μg/ml in TWB) and lysed by addition of SDS to a final concentration of 0.1%. After 5 minutes, SDS was removed using HiPPR Detergent Removal Spin Columns (Pierce, Thermo Scientific) followed by boiling and overnight digestion with 0.5 μg sequence-grade trypsin (Promega). After acidification (0.1% TFA final), the peptides were separated by nano-LC and directly analyzed with a Q Exactive instrument (Thermo Scientific).
(§2) For tamoxifen, four biological repeats were performed where the cells were treated with MTX-PEG6-tamoxifen after transfection. The obtained protein lists after viral trapping and MS analysis were challenged with protein lists coming from the four DMSO controls, the 19 control experiments and the lists obtained for the MTX-PEG6-simvastatin and MTX-PEG6-reversine (see below) for a total of 30 samples.

MINK1 = target: T2, MINK1 (Homo sapiens, UniProt Q8N4C8); details: all proteins (incl. low confidence identifications)
T2 construct: endogenous in cells; host or cells: HEK293T
Experimental: as §1, §2

VAPA = target: T3, VAPA (Homo sapiens, UniProt Q9P0L0)
T3 construct: endogenous in cells; host or cells: HEK293T
Experimental: as §1, §2

UBQLN2 = target: T4, UBQLN2 (Homo sapiens, UniProt Q9UHD9)
T4 construct: endogenous in cells; host or cells: HEK293T
Experimental: as §1, §2

ITPRIPL1 = target: T5, ITPRIPL1 (Homo sapiens, UniProt Q6GPH6); details: all proteins (incl. low confidence identifications)
T5 construct: endogenous in cells; host or cells: HEK293T
Experimental: as §1, §2

ZMPSTE24 = target: T6, ZMPSTE24 (Homo sapiens, UniProt O75844); details: all proteins (incl. low confidence identifications)
T6 construct: endogenous in cells; host or cells: HEK293T
Experimental: as §1, §2

HSD17B4 = target: T7, HSD17B4 (Homo sapiens, UniProt P51659)
T7 construct: endogenous in cells; host or cells: HEK293T
T7 sequence (P51659 1-736): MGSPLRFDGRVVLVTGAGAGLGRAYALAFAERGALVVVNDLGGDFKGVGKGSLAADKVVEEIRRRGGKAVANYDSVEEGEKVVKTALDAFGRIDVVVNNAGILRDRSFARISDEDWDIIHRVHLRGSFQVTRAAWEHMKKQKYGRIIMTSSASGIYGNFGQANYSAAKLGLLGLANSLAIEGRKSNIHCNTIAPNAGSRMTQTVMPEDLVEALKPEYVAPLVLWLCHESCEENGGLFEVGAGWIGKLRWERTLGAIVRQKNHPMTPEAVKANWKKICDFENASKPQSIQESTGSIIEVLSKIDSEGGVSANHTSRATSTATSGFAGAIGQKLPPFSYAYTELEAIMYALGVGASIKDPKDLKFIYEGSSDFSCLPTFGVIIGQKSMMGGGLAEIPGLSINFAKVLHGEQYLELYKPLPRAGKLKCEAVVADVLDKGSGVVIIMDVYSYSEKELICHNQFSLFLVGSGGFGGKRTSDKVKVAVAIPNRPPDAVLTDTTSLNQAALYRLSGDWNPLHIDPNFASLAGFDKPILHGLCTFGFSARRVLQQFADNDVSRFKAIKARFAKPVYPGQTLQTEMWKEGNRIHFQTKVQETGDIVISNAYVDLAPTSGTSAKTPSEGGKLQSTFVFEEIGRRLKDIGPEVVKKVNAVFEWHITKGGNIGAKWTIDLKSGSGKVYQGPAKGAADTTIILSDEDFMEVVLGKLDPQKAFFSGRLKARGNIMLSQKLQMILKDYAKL
Experimental: as §1, §2

TAOK2 = target: T8, TAOK2 (Homo sapiens, UniProt Q9UL54); details: all proteins (incl. low confidence identifications)
T8 construct: endogenous in cells; host or cells: HEK293T
Experimental: as §1, §2

DCAKD = target: T9, DCAKD (Homo sapiens, UniProt Q8WVC6); details: all proteins (incl. low confidence identifications)
T9 construct: endogenous in cells; host or cells: HEK293T
Experimental: as §1, §2

REEP4 = target: T10, REEP4 (Homo sapiens, UniProt Q9H6H4)
T10 construct: endogenous in cells; host or cells: HEK293T
Experimental: as §1, §2

ESYT1 = target: T11, ESYT1 (Homo sapiens, UniProt Q9BSJ8)
T11 construct: endogenous in cells; host or cells: HEK293T
Experimental: as §1, §2

RNF5 = target: T12, RNF5 (Homo sapiens, UniProt Q99942); details: all proteins (incl. low confidence identifications)
T12 construct: endogenous in cells; host or cells: HEK293T
Experimental: as §1, §2

CALU = target: T13, CALU (Homo sapiens, UniProt O43852); details: all proteins (incl. low confidence identifications)
T13 construct: endogenous in cells; host or cells: HEK293T
Experimental: as §1, §2

EPHX1 = target: T14, EPHX1 (Homo sapiens, UniProt P07099); details: all proteins (incl. low confidence identifications)
T14 construct: endogenous in cells; host or cells: HEK293T
Experimental: as §1, §2

LRRC59 = target: T15, LRRC59 (Homo sapiens, UniProt Q96AG4); details: all proteins (incl. low confidence identifications)
T15 construct: endogenous in cells; host or cells: HEK293T
Experimental: as §1, §2

REEP6 = target: T16, REEP6 (Homo sapiens, UniProt Q96HR9)
T16 construct: endogenous in cells; host or cells: HEK293T
Experimental: as §1, §2

GRAMD4 = target: T17, GRAMD4 (Homo sapiens, UniProt Q6IC98); details: all proteins (incl. low confidence identifications)
T17 construct: endogenous in cells; host or cells: HEK293T
Experimental: as §1, §2

RTN3 = target: T18, RTN3 (Homo sapiens, UniProt O95197); details: all proteins (incl. low confidence identifications)
T18 construct: endogenous in cells; host or cells: HEK293T
Experimental: as §1, §2

PCSK5 = target: T19, PCSK5 (Homo sapiens, UniProt Q92824); details: all proteins (incl. low confidence identifications)
T19 construct: endogenous in cells; host or cells: HEK293T
Experimental: as §1, §2

SSNA1 = target: T20, SSNA1 (Homo sapiens, UniProt O43805)
T20 construct: endogenous in cells; host or cells: HEK293T
Experimental: as §1, §2

[1] = all proteins (incl. low confidence identifications)
[2] = proteins identified with >1 peptide (high confidence)

T16 sequence (Q96HR9 1-184 isoform Q96HR9-2): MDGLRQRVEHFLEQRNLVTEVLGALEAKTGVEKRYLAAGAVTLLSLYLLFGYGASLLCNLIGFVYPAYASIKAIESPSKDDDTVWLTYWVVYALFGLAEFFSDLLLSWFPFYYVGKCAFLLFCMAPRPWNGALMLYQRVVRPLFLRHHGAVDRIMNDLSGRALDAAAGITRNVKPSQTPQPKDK
T10 sequence (Q9H6H4 whole entry): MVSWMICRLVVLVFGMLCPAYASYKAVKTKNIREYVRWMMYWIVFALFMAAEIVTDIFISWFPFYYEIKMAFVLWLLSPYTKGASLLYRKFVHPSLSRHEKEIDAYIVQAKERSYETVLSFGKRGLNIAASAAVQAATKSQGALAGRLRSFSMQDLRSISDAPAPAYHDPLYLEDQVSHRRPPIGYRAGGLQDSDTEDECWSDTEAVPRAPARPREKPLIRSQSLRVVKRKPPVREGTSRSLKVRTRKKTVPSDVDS
T3 sequence (Q9P0L0 whole entry): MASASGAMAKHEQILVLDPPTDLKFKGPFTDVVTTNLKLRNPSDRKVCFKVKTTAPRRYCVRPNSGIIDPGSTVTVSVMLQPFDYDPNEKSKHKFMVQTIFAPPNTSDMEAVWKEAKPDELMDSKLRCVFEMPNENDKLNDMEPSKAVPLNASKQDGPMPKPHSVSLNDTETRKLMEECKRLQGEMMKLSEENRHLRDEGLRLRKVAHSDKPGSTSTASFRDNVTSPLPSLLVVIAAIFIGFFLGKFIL
T4 sequence (Q9UHD9 whole entry): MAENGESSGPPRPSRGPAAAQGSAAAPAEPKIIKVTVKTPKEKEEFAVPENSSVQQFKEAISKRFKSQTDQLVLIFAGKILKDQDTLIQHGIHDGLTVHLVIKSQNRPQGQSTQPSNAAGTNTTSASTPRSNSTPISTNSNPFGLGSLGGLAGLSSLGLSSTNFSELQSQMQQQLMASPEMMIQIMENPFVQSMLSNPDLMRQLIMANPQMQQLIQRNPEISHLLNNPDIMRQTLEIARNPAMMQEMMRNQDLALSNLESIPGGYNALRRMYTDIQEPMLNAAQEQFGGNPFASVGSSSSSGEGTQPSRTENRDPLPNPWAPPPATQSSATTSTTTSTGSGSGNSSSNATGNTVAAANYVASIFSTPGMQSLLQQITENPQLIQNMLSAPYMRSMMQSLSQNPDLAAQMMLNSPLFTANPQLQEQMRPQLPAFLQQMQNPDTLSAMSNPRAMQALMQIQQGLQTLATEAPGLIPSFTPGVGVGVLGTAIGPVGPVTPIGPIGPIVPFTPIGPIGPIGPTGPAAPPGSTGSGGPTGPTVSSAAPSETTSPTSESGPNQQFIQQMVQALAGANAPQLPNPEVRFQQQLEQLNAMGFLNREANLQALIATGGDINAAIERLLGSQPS
T20 sequence (O43805 whole entry): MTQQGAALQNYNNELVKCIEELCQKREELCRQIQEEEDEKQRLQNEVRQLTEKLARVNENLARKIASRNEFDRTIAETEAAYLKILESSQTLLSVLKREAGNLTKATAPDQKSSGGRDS
T11 sequence (Q9BSJ8 whole entry): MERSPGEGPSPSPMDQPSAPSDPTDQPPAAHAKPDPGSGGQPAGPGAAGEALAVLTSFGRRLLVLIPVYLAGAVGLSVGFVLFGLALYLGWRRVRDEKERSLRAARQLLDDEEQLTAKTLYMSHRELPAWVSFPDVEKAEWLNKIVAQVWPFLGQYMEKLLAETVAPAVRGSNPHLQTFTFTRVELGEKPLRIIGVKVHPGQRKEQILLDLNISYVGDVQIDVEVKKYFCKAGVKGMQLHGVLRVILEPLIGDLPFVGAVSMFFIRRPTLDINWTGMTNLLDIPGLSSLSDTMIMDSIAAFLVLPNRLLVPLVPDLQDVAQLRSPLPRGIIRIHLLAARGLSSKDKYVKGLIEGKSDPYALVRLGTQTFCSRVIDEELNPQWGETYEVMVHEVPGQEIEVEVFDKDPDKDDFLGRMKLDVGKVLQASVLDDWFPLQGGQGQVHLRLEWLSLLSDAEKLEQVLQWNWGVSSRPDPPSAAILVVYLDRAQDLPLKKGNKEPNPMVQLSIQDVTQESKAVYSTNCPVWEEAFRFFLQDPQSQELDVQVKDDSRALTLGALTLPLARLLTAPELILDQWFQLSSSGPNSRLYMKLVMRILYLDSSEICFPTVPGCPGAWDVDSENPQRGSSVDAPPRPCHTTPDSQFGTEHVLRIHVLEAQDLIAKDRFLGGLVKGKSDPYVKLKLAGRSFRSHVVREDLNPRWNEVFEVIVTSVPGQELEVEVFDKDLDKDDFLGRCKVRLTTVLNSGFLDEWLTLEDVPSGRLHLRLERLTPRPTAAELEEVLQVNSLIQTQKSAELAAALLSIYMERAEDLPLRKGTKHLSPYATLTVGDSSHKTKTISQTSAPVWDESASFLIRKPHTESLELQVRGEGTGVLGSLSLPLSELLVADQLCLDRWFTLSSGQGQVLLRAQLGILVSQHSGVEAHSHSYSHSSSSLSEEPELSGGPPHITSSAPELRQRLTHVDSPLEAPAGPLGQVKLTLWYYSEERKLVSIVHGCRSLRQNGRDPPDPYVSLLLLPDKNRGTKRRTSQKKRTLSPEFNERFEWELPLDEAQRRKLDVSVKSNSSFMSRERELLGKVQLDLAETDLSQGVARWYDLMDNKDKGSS
T14 sequence (P07099 whole entry): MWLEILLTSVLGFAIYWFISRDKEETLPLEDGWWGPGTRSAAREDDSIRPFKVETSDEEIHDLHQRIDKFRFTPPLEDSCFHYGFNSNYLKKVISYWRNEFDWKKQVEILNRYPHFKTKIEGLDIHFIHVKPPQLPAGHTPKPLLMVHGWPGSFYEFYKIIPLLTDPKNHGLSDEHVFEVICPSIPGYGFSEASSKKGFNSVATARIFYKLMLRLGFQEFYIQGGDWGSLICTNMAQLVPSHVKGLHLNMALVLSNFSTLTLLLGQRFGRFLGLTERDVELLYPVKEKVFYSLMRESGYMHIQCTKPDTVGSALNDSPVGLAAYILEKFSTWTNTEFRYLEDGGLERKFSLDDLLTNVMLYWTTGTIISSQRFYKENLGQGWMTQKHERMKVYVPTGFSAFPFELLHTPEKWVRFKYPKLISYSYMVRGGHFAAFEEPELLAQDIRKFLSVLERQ
T9 sequence (Q8WVC6 whole entry): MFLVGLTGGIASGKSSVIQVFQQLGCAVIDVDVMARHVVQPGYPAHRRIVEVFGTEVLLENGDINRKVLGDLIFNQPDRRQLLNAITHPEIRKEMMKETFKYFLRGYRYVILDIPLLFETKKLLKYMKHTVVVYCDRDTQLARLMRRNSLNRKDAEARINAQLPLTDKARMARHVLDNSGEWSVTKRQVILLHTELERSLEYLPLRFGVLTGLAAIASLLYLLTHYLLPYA
T19 sequence (Q92824 115-1860): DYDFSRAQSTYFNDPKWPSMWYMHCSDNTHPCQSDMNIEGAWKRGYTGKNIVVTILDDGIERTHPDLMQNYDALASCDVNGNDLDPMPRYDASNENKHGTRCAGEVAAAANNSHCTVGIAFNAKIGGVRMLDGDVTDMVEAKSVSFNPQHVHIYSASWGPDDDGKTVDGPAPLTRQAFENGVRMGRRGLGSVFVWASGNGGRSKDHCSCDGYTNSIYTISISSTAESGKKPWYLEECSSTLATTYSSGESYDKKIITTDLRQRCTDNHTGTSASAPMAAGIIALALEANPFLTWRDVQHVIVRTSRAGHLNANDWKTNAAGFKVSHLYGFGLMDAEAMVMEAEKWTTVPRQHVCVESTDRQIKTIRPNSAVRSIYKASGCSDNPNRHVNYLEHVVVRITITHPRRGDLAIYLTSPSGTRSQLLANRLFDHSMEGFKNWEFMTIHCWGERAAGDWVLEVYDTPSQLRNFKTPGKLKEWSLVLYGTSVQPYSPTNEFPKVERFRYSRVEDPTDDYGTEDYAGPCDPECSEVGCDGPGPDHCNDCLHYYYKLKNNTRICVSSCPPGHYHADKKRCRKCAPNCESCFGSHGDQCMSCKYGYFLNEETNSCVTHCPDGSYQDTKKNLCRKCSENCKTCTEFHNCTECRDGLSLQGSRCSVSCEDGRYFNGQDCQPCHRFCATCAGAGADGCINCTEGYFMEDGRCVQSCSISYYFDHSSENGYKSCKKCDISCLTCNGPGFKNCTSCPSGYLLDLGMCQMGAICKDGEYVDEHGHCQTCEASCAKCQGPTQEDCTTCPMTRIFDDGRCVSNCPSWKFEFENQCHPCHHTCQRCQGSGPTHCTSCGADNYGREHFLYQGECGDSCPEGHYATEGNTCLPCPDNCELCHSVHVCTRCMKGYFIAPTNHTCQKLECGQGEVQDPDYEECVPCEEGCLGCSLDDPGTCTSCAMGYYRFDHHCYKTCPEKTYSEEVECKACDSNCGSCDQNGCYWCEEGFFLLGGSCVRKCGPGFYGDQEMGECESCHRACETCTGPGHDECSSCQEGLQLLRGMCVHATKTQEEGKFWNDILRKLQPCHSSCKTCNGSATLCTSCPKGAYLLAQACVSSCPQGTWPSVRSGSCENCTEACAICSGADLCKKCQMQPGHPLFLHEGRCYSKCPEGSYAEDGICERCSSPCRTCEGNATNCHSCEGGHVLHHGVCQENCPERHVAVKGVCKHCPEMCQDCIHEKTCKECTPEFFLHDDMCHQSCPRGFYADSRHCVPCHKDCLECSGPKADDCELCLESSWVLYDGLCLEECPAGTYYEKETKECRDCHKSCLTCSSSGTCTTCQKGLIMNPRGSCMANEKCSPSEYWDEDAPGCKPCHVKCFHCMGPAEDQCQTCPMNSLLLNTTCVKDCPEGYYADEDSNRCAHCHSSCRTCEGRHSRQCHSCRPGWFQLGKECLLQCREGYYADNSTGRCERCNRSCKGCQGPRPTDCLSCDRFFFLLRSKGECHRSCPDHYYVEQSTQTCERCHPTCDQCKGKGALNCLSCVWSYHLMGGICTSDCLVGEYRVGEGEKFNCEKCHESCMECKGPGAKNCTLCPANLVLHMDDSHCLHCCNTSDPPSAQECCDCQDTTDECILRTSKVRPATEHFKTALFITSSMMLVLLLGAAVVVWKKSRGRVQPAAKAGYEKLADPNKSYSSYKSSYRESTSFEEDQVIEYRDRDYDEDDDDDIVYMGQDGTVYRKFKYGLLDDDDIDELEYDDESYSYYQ

`CCC(=C(c1ccccc1)c1ccc(OCCN(C)Cc2cn(CCOCCOCCOCCOCCOCCNC(=O)CCC(NC(=O)c3ccc(N(C)Cc4cnc5nc(N)nc(N)c5n4)cc3)C(=O)O)nn2)cc1)c1ccccc1` (stereo not drawn) [MTX-PEG6-tamoxifen] was tested, and the “Recurrence (x/4)” value (ENPP4) was 1 x/4, the “Recurrence (x/4)” value (MINK1) was 1 x/4 and the “Recurrence (x/4)” value (VAPA; [1]) was 1 x/4. The “Recurrence (x/4)” value (VAPA; [2]) was 1 x/4, the “Recurrence (x/4)” value (UBQLN2; [1]) was 1 x/4 and the “Recurrence (x/4)” value (UBQLN2; [2]) was 1 x/4. For the same molecule, the “Recurrence (x/4)” value (ITPRIPL1) was 1 x/4, the “Recurrence (x/4)” value (ZMPSTE24) was 1 x/4 and the “Recurrence (x/4)” value (HSD17B4; [1]) was 4 x/4. For the same molecule, the “Recurrence (x/4)” value (HSD17B4; [2]) was 4 x/4, the “Recurrence (x/4)” value (TAOK2) was 1 x/4 and the “Recurrence (x/4)” value (DCAKD) was 2 x/4. The “Recurrence (x/4)” value (REEP4; [1]) was 2 x/4, the “Recurrence (x/4)” value (REEP4; [2]) was 2 x/4 and the “Recurrence (x/4)” value (ESYT1; [1]) was 1 x/4. For the same molecule, the “Recurrence (x/4)” value (ESYT1; [2]) was 1 x/4, the “Recurrence (x/4)” value (RNF5) was 3 x/4 and the “Recurrence (x/4)” value (CALU) was 1 x/4. The “Recurrence (x/4)” value (EPHX1) was 1 x/4, the “Recurrence (x/4)” value (LRRC59) was 1 x/4 and the “Recurrence (x/4)” value (REEP6; [1]) was 4 x/4. For the same molecule, the “Recurrence (x/4)” value (REEP6; [2]) was 3 x/4, the “Recurrence (x/4)” value (GRAMD4) was 1 x/4 and the “Recurrence (x/4)” value (RTN3) was 1 x/4. The “Recurrence (x/4)” value (PCSK5) was 1 x/4, the “Recurrence (x/4)” value (SSNA1; [1]) was 4 x/4 and the “Recurrence (x/4)” value (SSNA1; [2]) was 2 x/4.
